# Assay results as given in US10513523B2, “Imidazopyrazines and pyrazolopyrimidines and their use as AMPA receptor modulators” (Janssen Pharmaceutica NV, priority 2015, dated 2019).
# Target: GluA1o-γ8 (GRIA1o-CACNG8 fusion construct; TARP γ8 dependent AMPA receptor) (Homo sapiens (Human), UniProt P42261+Q8WXS5)
# Experiment: Calcium flux assay (FLIPR), inhibition of glutamate response of GluA1o-γ8 channel
# Assay type: cell-based
# Conditions: HEK293 cells stably expressing GRIA1o-CACNG8 fusion; 15 μM glutamate; pIC50 = negative log of IC50 in molar; read-out: GluR1-γ8 (pIC50) (converted)
# From the text: This assay was used to test compounds for their ability to inhibit TARP γ8 dependent AMPA receptor activity. The AMPA receptor is a non-selective cation channel activated by glutamate. Ionotropic glutamate receptors normally desensitize too rapidly to allow detectable calcium influx in a FLIPR assay (Strange et al. (2006). “Functional characterisation of homomeric ionotropic glutamate receptors GluR1-GluR6 in a fluorescence-based high throughput screening assay.” Comb Chem High Throughput Screen 9(2): 147-158). But, this desensitization is incomplete, and a substantial steady-state current remains in the sustained presence of glutamate (Cho et al. (2007). “Two families of TARP isoforms that have distinct effects on the kinetic properties of AMPA receptors and synaptic currents.” Neuron 55(6): 890-904).
# An in vitro assay was used to determine the potency of test compounds as inhibitors of the glutamate response of the channel formed by GluA1o-γ8. To ensure a 1:1 stoichiometry of GluA10 and γ8 subunits in the expressed channel, a fusion of the cDNAs for GRIA1o and CACNG8 was used. Following Shi et al (2009) “The stoichiometry of AMPA receptors and TARPs varies by neuronal cell type.” Neuron 62(5): […]), the C-terminus of the cDNA for GRI1o was fused to the N-terminus of the cDNA for γ8. The linker sequence was […]. […] A clonal cell line in HEK293 cells stably expressing this construct, with a geneticin selection marker, was generated for use in this assay. Cell expressing the GRIA1o-CACNG8 fusion construct were grown in a monolayer in 96- or 384-well microtiter plates. They were washed with assay buffer (135 mM NaCl, 4 mM KCl, 3 mM CaCl2, 1 mM MgCl2, 5 mM glucose, 10 mM HEPES, pH 7.4, 300 mOs) using a Biotek EL405 plate washer. The cells were then loaded with a calcium-sensitive dye (Calcium-5 or Calcium-6, Molecular Devices) and the test compounds at a range of concentrations. Calcium flux following the addition of 15 μM glutamate was monitored using a Molecular Devices FLIPR Tetra.
# The fluorescence in each well was normalized to the fluorescence of negative and positive control wells. […] The responses to glutamate as functions of the test compound concentrations were fitted to a four-parameter logistic function. The fitted parameter corresponding to the midpoint was taken to be the potency of inhibition of the compound.
# Chain of GluA1o-γ8 (GRIA1o-CACNG8 fusion construct; TARP γ8 dependent AMPA receptor) (P42261 other isoform, or with tags, fused parts or gaps): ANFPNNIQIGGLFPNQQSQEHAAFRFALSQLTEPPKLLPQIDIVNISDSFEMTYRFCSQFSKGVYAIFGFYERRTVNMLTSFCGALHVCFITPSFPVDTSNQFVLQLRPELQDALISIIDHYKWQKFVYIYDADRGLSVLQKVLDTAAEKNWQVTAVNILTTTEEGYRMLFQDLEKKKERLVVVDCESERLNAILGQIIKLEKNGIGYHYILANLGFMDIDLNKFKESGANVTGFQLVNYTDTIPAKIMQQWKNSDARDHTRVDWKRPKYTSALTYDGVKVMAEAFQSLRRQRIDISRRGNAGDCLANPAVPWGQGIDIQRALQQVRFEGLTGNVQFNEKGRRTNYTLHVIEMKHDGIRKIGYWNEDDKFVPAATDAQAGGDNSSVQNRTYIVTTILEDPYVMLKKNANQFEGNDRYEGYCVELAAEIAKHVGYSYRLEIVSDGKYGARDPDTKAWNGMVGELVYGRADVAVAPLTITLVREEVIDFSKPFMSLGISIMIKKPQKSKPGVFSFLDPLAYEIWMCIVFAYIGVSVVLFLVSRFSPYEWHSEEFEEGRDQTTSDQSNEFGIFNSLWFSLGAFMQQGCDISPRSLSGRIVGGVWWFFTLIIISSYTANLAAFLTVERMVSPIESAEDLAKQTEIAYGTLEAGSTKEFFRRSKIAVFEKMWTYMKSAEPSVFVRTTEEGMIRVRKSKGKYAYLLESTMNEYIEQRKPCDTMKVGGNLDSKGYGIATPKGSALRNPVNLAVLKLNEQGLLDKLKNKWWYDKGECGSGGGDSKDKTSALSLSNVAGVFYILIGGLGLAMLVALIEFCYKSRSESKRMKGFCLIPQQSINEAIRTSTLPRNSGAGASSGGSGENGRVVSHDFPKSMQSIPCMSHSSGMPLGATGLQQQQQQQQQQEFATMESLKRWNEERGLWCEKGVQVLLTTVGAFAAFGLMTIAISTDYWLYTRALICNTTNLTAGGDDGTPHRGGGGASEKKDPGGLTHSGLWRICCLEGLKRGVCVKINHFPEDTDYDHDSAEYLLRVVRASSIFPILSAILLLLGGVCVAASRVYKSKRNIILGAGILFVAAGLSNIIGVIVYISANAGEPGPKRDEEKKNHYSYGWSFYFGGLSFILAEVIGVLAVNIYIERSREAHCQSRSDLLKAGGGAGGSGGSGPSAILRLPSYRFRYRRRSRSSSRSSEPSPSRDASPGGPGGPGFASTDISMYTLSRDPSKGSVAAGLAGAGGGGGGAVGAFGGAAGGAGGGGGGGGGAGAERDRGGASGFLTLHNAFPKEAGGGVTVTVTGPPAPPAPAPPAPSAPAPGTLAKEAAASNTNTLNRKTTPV
row,IC50 [nM],Structure (SMILES)
1,0.158,"O=C1Cc2cc(-c3c(-c4ccccc4)nc4c(N5CCOCC5)nccn34)ccc2N1 [Example 65, 5-(8-Morpholino-2-phenyl-imidazo[1,2-a]pyrazin-3-yl)indolin-2-one]"
2,631,"O=C1Cc2cc(-c3c(C4CCCC4)nn4c(N5CC(O)C5)nccc34)ccc2N1 [Example 205, 5-[2-Cyclopentyl-7-(3-hydroxyazetidin-1-yl)pyrazolo[1,5-c]pyrimidin-3-yl]indolin-2-one]"
3,1.58,"CN(C)c1nccc2c(-c3ccc4c(c3)CC(=O)N4)c(-c3ccc(F)cc3)nn12 [Example 169, 5-[7-(Dimethylamino)-2-(4-fluorophenyl)pyrazolo[1,5-c]pyrimidin-3-yl]indolin-2-one]"
4,1580,"O=c1[nH]c2ccc(-c3c(-c4ccc(F)cc4)nc4c(O)nccn34)cc2[nH]1 [Example 249, 5-[2-(4-Fluorophenyl)-8-hydroxy-imidazo[1,2-a]pyrazin-3-yl]-1,3-dihydrobenzimidazol-2-one]"
5,3.98,"Cc1cnc(N2CCOCC2)n2nc(C(C)C)c(-c3ccc4[nH]c(=O)sc4c3)c12 [Example 243, 6-(2-Isopropyl-4-methyl-7-morpholino-pyrazolo[1,5-c]pyrimidin-3-yl)-3H-1,3-benzothiazol-2-one]"
6,398,"O=C1Nc2ccc(-c3c(-c4ccc(F)cc4)nc4c(N5CCOCC5)nccn34)cc2C1(F)F [Example 136, 3,3-Difluoro-5-[2-(4-fluorophenyl)-8-morpholino-imidazo[1,2-a]pyrazin-3-yl]indolin-2-one]"
7,501,"CN(C(=O)c1nc2c(N3CCOCC3)nccn2c1-c1ccc2[nH]c(=O)[nH]c2c1)c1ccccc1 [Example 145, N-Methyl-8-morpholino-3-(2-oxo-1,3-dihydrobenzimidazol-5-yl)-N-phenyl-imidazo[1,2-a]pyrazine-2-carboxamide]"
8,316,"COC1CN(c2nccc3c(-c4ccc5c(c4)CC(=O)N5)c(C4CCCC4)nn23)C1 [Example 195, 5-[2-Cyclopentyl-7-(3-methoxyazetidin-1-yl)pyrazolo[1,5-c]pyrimidin-3-yl]indolin-2-one]"
9,0.126,"COC1CCN(c2nccn3c(-c4ccc5c(c4)CC(=O)N5)c(-c4ccc(F)cc4)nc23)CC1 [Example 72, 5-[2-(4-Fluorophenyl)-8-(4-methoxy-1-piperidyl)imidazo[1,2-a]pyrazin-3-yl]indolin-2-one]"
10,631,"O=C1Cc2cc(-c3c(-c4ccc(F)cc4)nn4cnccc34)ccc2N1 [Example 175, 5-[2-(4-Fluorophenyl)pyrazolo[1,5-c]pyrimidin-3-yl]indolin-2-one]"
11,0.631,"COC1CCN(c2nccc3c(-c4ccc5[nH]ncc5c4)c(-c4ccccc4)nn23)CC1 [Example 234, 3-(1H-Indazol-5-yl)-7-(4-methoxy-1-piperidyl)-2-phenyl-pyrazolo[1,5-c]pyrimidine]"
12,0.794,"CC1COCCN1c1nccn2c(-c3ccc4c(c3)CC(=O)N4)c(-c3ccc(F)cc3)nc12 (stereo not shown) [Example 39, 5-[2-(4-Fluorophenyl)-8-(3-methylmorpholin-4-yl)imidazo[1,2-a]pyrazin-3-yl]indolin-2-one]"
13,31.6,"CC1(C)COCCN1c1nccn2c(-c3ccc4c(c3)CC(=O)N4)c(-c3ccc(F)cc3)nc12 [Example 50, 5-[8-(3,3-Dimethylmorpholin-4-yl)-2-(4-fluorophenyl)imidazo[1,2-a]pyrazin-3-yl]indolin-2-one]"
14,12.6,"O=c1[nH]c2ccc(-c3c(-c4ccccc4)nc4cnc(C(F)(F)F)cn34)cc2s1 [Example 245, 6-[2-Phenyl-6-(trifluoromethyl)imidazo[1,2-a]pyrazin-3-yl]-3H-1,3-benzothiazol-2-one]"

# The remaining lines, values behind:
row,Structure (SMILES),IC50 [nM]
1,"CC(C)c1nn2cnc(C(F)(F)F)cc2c1-c1ccc2[nH]c(=O)sc2c1 [Example 231, 6-[2-Isopropyl-5-(trifluoromethyl)pyrazolo[1,5-c]pyrimidin-3-yl]-3H-1,3-benzothiazol-2-one]",63.1
2,"COC1CCN(c2nccc3c(-c4ccc5[nH]c(=O)sc5c4)c(C(C)C)nn23)CC1 [Example 241, 6-[2-Isopropyl-7-(4-methoxy-1-piperidyl)pyrazolo[1,5-c]pyrimidin-3-yl]-3H-1,3-benzothiazol-2-one]",2.51
3,"Oc1ccc(-c2c(-c3ccc(F)cc3)nc3c(N4CCC(F)(F)CC4)nccn23)cc1 [Example 28, 4-[8-(4,4-Difluoro-1-piperidyl)-2-(4-fluorophenyl)imidazo[1,2-a]pyrazin-3-yl]phenol]",158
4,"CC1(O)CCN(c2nccn3c(-c4ccc5c(c4)CC(=O)N5)c(-c4ccc(F)cc4)nc23)CC1 [Example 68, 5-[2-(4-Fluorophenyl)-8-(4-hydroxy-4-methyl-1-piperidyl)imidazo[1,2-a]pyrazin-3-yl]indolin-2-one]",0.1
5,"O=c1[nH]c2ccc(-c3c(-c4ccccc4)nn4cnc(C(F)(F)F)cc34)cc2s1 [Example 224, 6-[2-phenyl-5-(trifluoromethyl)pyrazolo[1,5-c]pyrimidin-3-yl]-3H-1,3-benzothiazol-2-one]",20
6,"O=C1CN(c2nccn3c(-c4ccc5c(c4)CC(=O)N5)c(C(=O)Nc4ccccc4)nc23)CCN1 [Example 143, 3-(2-Oxoindolin-5-yl)-8-(3-oxopiperazin-1-yl)-N-phenyl-imidazo[1,2-a]pyrazine-2-carboxamide]",20
7,"Cc1cnc(N2CCOCC2)n2nc(C(C)C)c(-c3ccc4[nH]ncc4c3)c12 [Example 239, 4-[3-(1H-Indazol-5-yl)-2-isopropyl-4-methyl-pyrazolo[1,5-c]pyrimidin-7-yl]morpholine]",39.8
8,"CN(C)c1nccn2c(-c3ccc4[nH]c(=O)[nH]c4c3)c(-c3ccc(F)cc3)nc12 [Example 101, 5-[8-(Dimethylamino)-2-(4-fluorophenyl)imidazo[1,2-a]pyrazin-3-yl]-1,3-dihydrobenzimidazol-2-one]",0.501
9,"N#Cc1ccc(-c2nc3c(N4CCNC(=O)C4)nccn3c2-c2ccc3c(c2)CC(=O)N3)cc1 [Example 210, 4-[3-(2-Oxoindolin-5-yl)-8-(3-oxopiperazin-1-yl)imidazo[1,2-a]pyrazin-2-yl]benzonitrile]",20
10,"O=C1Cc2cc(-c3c(-c4ccccc4)nc4c(N5CC(F)C5)nccn34)ccc2N1 [Example 81, 5-[8-(3-Fluoroazetidin-1-yl)-2-phenyl-imidazo[1,2-a]pyrazin-3-yl]indolin-2-one]",0.398
11,"CC(C)(C)c1nn2cnc(C(F)(F)F)cc2c1-c1ccc2[nH]c(=O)sc2c1 [Example 232, 6-[2-tert-Butyl-5-(trifluoromethyl)pyrazolo[1,5-c]pyrimidin-3-yl]-3H-1,3-benzothiazol-2-one]",316
12,"CC(C)(C)c1nn2c(N3CCOCC3)nccc2c1-c1ccc2c(c1)CC(=O)N2 [Example 182, 5-(2-tert-Butyl-7-morpholino-pyrazolo[1,5-c]pyrimidin-3-yl)indolin-2-one]",63.1
13,"O=c1[nH]c2ccc(-c3c(-c4ccc(F)cc4)nc4c(N5CCOCC5)nccn34)cc2[nH]1 [Example 11, 5-[2-(4-Fluorophenyl)-8-morpholino-imidazo[1,2-a]pyrazin-3-yl]-1,3-dihydrobenzimidazol-2-one]",0.398
14,"CNc1nccc2c(-c3ccc4c(c3)CC(=O)N4)c(-c3ccc(F)cc3)nn12 [Example 171, 5-[2-(4-Fluorophenyl)-7-(methylamino)pyrazolo[1,5-c]pyrimidin-3-yl]indolin-2-one]",12.6
